From patent publication US20230043863A1, “HETEROAROMATIC DERIVATIVES FOR USE AS REGULATOR, PREPARATION METHOD THEREFOR AND USE THEREOF” (JIANGSU HANSOH PHARMACEUTICAL GROUP CO., LTD., priority 2018, published 2023)

Assays:
[1] = target: JAK1 (Homo sapiens, UniProt P23458); test: JAK kinase activity inhibition, TR-FRET (JAK1); format: biochemical; conditions: TR-FRET kinase assay
Experimental: (§1) Experimental objective: The objective of this test is to test the inhibitory effect of the compound on JAK kinase activity.
(§2) Experimental method: the fluorescence resonance energy transfer (TR-FRET) method was used to test the inhibitory effect of the compound on JAK kinase activity, and the half inhibitory concentration IC50 of the compound on JAK kinase activity was obtained.
(§3) Kinase reaction was carried out in a white 384-well plate (PerkinElmer). 1-5 μL of different concentrations of the compound diluted with DMSO and ddH2O was added into each well, and 1-5 μL of the corresponding solvent was added to the positive control wells, followed by addition of 0.1-20 nM JAK kinase solution diluted with 1-5 μL of kinase buffer (HEPES 50-250 mM, MgCl2 5-20 mM, etc.) was added to each well. 1-5 μL of kinase buffer was added to the negative control well. 1-5 μL of substrate mixture containing peptide substrate and ATP was added. The plate was incubated at room temperature for 0.5-5 hours. […], EDTA and detection solution containing labeled antibody was added, and then the plate was incubated at room temperature for another 1-24 hours. The fluorescence signal value at about 620 nm and 665 nm of each well was measured by BioTek Synergy H1 plate reader, and the inhibition rate was calculated by the fluorescence signal value. According to the inhibition rate of different concentrations, the IC50 of the compound was obtained by curve fitting.
(§4) The percentage inhibition data of the wells treated with the compound was calculated with the positive control wells (DMSO control wells) and negative control wells (no kinase added) on the plate {% inhibition rate=100-[(test compound value-negative control value)]/(Positive control value-negative control value)×100}. IC50 value was calculated by using GraphPad prism to fit the data of different concentrations and corresponding percentage inhibition rates to a 4-parameter non-linear logic formula.

[2] = target: TYK2 (Homo sapiens, UniProt P29597); test: JAK kinase activity inhibition, TR-FRET (TYK2); format: biochemical; conditions: TR-FRET kinase assay
TYK2, sequence (P29597 whole entry): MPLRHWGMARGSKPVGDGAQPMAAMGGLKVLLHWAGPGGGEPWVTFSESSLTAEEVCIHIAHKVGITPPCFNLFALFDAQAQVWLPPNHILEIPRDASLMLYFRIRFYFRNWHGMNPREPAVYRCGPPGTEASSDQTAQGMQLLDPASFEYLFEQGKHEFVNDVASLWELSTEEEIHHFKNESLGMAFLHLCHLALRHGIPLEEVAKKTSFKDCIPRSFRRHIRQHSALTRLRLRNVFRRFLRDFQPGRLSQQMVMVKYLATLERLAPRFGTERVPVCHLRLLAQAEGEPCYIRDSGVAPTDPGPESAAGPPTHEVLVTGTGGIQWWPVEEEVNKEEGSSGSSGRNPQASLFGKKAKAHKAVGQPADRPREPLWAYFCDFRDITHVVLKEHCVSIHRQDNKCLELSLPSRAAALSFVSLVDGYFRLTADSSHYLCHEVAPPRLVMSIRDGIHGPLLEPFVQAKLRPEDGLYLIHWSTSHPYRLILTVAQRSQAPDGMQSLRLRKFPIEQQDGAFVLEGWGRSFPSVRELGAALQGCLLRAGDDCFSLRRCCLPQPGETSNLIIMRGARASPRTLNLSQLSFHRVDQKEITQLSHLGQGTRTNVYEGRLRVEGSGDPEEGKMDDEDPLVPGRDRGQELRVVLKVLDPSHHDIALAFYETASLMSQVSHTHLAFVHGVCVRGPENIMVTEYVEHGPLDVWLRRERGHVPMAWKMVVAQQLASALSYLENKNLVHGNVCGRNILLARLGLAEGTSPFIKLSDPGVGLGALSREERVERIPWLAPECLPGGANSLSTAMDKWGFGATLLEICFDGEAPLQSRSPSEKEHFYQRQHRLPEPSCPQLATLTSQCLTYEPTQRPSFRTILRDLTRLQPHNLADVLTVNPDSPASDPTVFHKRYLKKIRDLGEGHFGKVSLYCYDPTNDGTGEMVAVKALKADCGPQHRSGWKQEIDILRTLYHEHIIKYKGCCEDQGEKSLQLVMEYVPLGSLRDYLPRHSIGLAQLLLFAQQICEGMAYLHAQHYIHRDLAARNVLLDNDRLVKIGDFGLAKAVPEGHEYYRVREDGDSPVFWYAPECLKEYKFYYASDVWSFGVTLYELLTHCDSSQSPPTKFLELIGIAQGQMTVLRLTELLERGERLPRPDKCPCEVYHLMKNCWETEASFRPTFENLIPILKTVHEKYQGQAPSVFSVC
Experimental: as §1, §2, §3, §4

JAK1, sequence (P23458 whole entry): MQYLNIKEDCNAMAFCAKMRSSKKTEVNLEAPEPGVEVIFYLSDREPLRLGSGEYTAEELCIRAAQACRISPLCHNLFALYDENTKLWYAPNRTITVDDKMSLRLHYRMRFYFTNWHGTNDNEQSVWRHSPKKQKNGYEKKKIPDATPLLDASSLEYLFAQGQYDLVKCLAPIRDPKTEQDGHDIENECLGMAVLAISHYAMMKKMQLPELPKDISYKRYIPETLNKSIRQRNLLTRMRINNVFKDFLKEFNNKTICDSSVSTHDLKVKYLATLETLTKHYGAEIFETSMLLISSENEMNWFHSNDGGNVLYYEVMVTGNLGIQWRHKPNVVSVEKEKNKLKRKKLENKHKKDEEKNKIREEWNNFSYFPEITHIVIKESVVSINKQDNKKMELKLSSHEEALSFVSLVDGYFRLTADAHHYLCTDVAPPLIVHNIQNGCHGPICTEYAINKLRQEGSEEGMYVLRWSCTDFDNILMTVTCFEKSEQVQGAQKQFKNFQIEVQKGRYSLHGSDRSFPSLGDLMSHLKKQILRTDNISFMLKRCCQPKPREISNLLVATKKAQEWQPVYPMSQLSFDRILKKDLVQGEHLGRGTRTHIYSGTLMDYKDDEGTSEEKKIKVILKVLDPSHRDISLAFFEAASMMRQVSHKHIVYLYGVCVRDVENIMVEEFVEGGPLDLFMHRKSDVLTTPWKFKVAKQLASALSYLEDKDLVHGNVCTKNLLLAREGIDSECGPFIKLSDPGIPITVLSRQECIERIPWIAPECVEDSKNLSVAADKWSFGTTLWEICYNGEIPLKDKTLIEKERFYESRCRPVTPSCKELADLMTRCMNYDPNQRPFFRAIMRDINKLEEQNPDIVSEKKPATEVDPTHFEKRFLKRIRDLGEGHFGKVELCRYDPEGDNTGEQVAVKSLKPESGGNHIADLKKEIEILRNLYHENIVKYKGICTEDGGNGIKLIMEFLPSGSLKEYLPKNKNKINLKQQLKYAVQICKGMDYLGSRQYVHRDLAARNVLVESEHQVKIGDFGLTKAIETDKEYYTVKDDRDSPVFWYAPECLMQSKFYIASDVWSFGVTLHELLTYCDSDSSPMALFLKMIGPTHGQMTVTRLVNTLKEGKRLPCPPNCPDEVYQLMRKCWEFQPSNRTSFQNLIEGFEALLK

Structure (SMILES)	IC50 [1] [nM]	IC50 [2] [nM]
Cc1cc(Nc2cc3nccn3c(N[C@@H]3C[C@H]4CC[C@@H](C3)N4CCC#N)n2)n[nH]1 [Embodiment 79, 3-((3-exo)-3-((7-((5-methyl-1H-pyrazol-3-yl)amino)imidazo[1,2-c]pyrimidin-5-yl)amino)-8-azabicyclo[3.2.1]oct-8-yl)propionitrile]	2.95	5.77
Cc1cc(Nc2nc(N[C@@H]3C[C@H]4CC[C@@H](C3)N4C(=O)CN(C)C)nc3cc(Cl)ccc23)n[nH]1 [Embodiment 224]	1.76	> 100
Cc1cc(Nc2nc(N[C@@H]3C[C@H]4CC[C@@H](C3)N4C(=O)c3ccccn3)nc3ccccc23)n[nH]1 [Embodiment 226, ((3-exo)-3-((4-((5-methyl-1H-pyrazol-3-yl)amino)quinazolin-2-yl)amino)-8-azabicyclo[3.2.1]oct-8-yl)(pyridin-2-yl)methanone]	13.1	0.3
N#CCCN1[C@@H]2CC[C@H]1C[C@H](Nc1nc(Nc3cc(C4CC4)[nH]n3)cc3ncccc13)C2 [Embodiment 12, 3-((3-exo)-3-((7-((5-cyclopropyl-1H-pyrazol-3-yl)amino)-1,6-diazanaphthalen-5-yl)amino)-8-azabicyclo[3.2.1]oct-8-yl)propionitrile]	2.71	10.1
Cc1cc(Nc2nc(N[C@@H]3C[C@H]4CC[C@@H](C3)N4C(=O)CN(C)C)nc3ccccc23)n[nH]1 [Embodiment 225, 2-(dimethylamine)-1-((3-exo)-3-((4-((5-methyl-1H-pyrazol-3-yl)amino)quinazolin-2-yl)amino)-8-azabicyclo[3.2.1]oct-8-yl)ethane-1-one]	9.16	0.94
Cc1cc(Nc2nc(N[C@@H]3C[C@H]4CC[C@@H](C3)N4CCF)nc3ccccc23)n[nH]1 [Embodiment 234]	112	7.11
Cc1cc(Nc2nc(N[C@@H]3C[C@H]4CC[C@@H](C3)N4C(=O)c3cccnc3)nc3ccccc23)n[nH]1 [Embodiment 227, ((3-exo)-3-((4-((5-methyl-1H-pyrazol-3-yl)amino)quinazolin-2-yl)amino)-8-azabicyclo[3.2.1]oct-8-yl)(pyridin-3-yl)methanone]	5.17	4.77
Cc1cc(Nc2nc(N[C@@H]3C[C@H]4CC[C@@H](C3)N4S(=O)(=O)c3cccnc3)nc3ccccc23)n[nH]1 [Embodiment 232]	7.2	2
N#CCCN1[C@@H]2CC[C@H]1C[C@H](Nc1nc(Nc3cc[nH]n3)cc3ncccc13)C2 [Embodiment 6, 3-((3-exo)-3-((7-((1H-pyrazol-3-yl)amino)-1,6-diazanaphthalen-5-yl)amino)-8-azabicyclo[3.2.1]oct-8-yl)propionitrile]	4.03	10.7
Cc1cc(Nc2nc(N[C@@H]3C[C@H]4CC[C@@H](C3)N4S(=O)(=O)N3CC(C#N)C3)nc3cc(C)sc23)n[nH]1 [Embodiment 286, 1-(((3-exo)-3-((6-methyl-4-((5-methyl-1H-pyrazol-3-yl)amino)thieno[3,2-d]pyrimidin-2-yl)amino)-8-azabicyclo[3.2.1]oct-8-yl)sulfonyl)azetindin-3-formonitrile]	0.06	14
O=C(CN1CCCC1)N1[C@@H]2CCC[C@H]1C[C@H](Nc1nc(Nc3ncc(CO)s3)cc3ncccc13)C2 [Embodiment 164, 1-((3-exo)-3-((7-((5-(hydroxymethyl)thiazol-2-yl)amino)-1,6-diazanaphthalen-5-yl)amino)-9-azabicyclo[3.3.1]non-9-yl)-2-(pyrrolidin-1-yl)ethane-1-one]	0.85	16.6
Cc1cc(Nc2cc3ncccc3c(N[C@@H]3C[C@H]4CC[C@@H](C3)N4S(=O)(=O)c3cn[nH]c3)n2)n[nH]1 [Embodiment 315, N5-((3-exo)-8-((1H-pyrazol-4-yl)sulfonyl)-8-azabicyclo[3.2.1]oct-3-yl)-N7-(5-methyl-1H-pyrazol-3-yl)-1,6-diazanaphthalen-5,7-diamine]	13.1	> 100
Cc1cc(Nc2nc(N[C@@H]3C[C@H]4CC[C@@H](C3)N4S(=O)(=O)N3CC(C#N)C3)nc3cc(C4CC4)ccc23)n[nH]1 [Embodiment 216, 1-(((3-exo)-3-((7-cyclopropyl-4-((5-methyl-1H-pyrazol-3-yl)amino)quinazolin-2-yl)amino)-8-azabicyclo[3.2.1]oct-8-yl)sulfonyl)azetindin-3-formonitrile]	0.04	0.48
Cc1cnc(Nc2nc(N[C@@H]3C[C@H]4CC[C@@H](C3)N4S(=O)(=O)N3CC(C#N)C3)nc3ccccc23)s1 [Embodiment 221, 1-(((3-exo)-3-((4-((5-methylthioazole-2-yl)amino)quinazolin-2-yl)amino)-8-azabicyclo[3.2.1]oct-8-yl)sulfonyl)azetindin-3-formonitrile]	0.79	1.26

More lines, now with the values ahead:

IC50 [1] [nM]	IC50 [2] [nM]	Structure (SMILES)
0.24	0.24	Cc1cc(Nc2nc(N[C@@H]3C[C@H]4CC[C@@H](C3)N4CCC#N)nc3[nH]ncc23)n[nH]1 [Embodiment 51, 3-((3-exo)-3-((4-((5-methyl-1H-pyrazol-3-yl)amino)-1H-pyrazolo[3,4-d]pyrimidin-6-yl)amino)-8-azabicyclo[3.2.1]oct-8-yl)propionitrile]
0.65	0.15	Cc1cc(Nc2nc(N[C@@H]3C[C@H]4CC[C@@H](C3)N4CCC#N)nc3ncccc23)n[nH]1 [Embodiment 89, 3-((3-exo)-3-((4-((5-methyl-1H-pyrazol-3-yl)amino)pyrido[2,3-d]pyrimidin-2-yl)amino)-8-azabicyclo[3.2.1]oct-8-yl)propionitrile]
0.35	0.56	Cc1cc(Nc2nc(N[C@@H]3C[C@H]4CC[C@@H](C3)N4CCC#N)nc3cc(-c4ccncc4)ccc23)n[nH]1 [Embodiment 180, 3-((3-exo)-3-((4-((5-methyl-1H-pyrazol-3-yl)amino)-7-(pyridin-4-yl)quinazolin-2-yl)amino)-8-azabicyclo[3.2.1]oct-8-yl)propionitrile]
0.14	0.48	Cc1cc(Nc2nc(N[C@@H]3C[C@H]4CC[C@@H](C3)N4CCC#N)nc3cc(-c4ccccc4)ccc23)n[nH]1 [Embodiment 184, 3-((3-exo)-3-((4-((5-methyl-1H-pyrazol-3-yl)amino)-7-phenylquinazolin-2-yl)amino)-8-azabicyclo[3.2.1]oct-8-yl)propionitrile]
0.18	0.1	COc1ccc(-c2ccc3c(Nc4cc(C)[nH]n4)nc(N[C@@H]4C[C@H]5CC[C@@H](C4)N5CCC#N)nc3c2)cn1 [Embodiment 183, 3-((3-exo)-3-((7-(6-methoxylpyridin-3-yl)-4-((5-methyl-1H-pyrazol-3-yl)amino)quinazolin-2-yl)amino)-8-azabicyclo[3.2.1]oct-8-yl)propionitrile]
0.37	0.25	COc1cncc(-c2ccc3c(Nc4cc(C)[nH]n4)nc(N[C@@H]4C[C@H]5CC[C@@H](C4)N5CCC#N)nc3c2)c1 [Embodiment 182]
0.23	0.19	Cc1cc(Nc2nc(N[C@@H]3C[C@H]4CC[C@@H](C3)N4CCC#N)nc3cc(-n4ccnc4)ccc23)n[nH]1 [Embodiment 203, 3-((3-exo)-3-((7-(1H-imidazol-1-yl)-4-((5-methyl-1H-pyrazol-3-yl)amino)quinazolin-2-yl)amino)-8-azabicyclo[3.2.1]oct-8-yl)propionitrile]
> 100	42.8	Cc1cc(Nc2nc(N[C@@H]3C[C@H]4CC[C@@H](C3)N4CCC#N)nc3cccc(Cl)c23)n[nH]1 [Embodiment 175, 3-((3-exo)-3-((5-chloro-4-((5-methyl-1H-pyrazol-3-yl)amino)quinazolin-2-yl)amino)-8-azabicyclo[3.2.1]oct-8-yl)propionitrile]
10.6	> 100	Cc1cc(Nc2nc(N[C@@H]3C[C@H]4CC[C@@H](C3)N4CCC#N)nc3ccc(Cl)cc23)n[nH]1 [Embodiment 178, 3-((3-exo)-3-((6-chloro-4-((5-methyl-1H-pyrazol-3-yl)amino)quinazolin-2-yl)amino)-8-azabicyclo[3.2.1]oct-8-yl)propionitrile]
